From patent publication US20250179027A1, “CYCLOALKYL OR HETEROCYCLYL SUBSTITUTED HETEROARYL COMPOUND, AND COMPOSITION AND USE THEREOF” (Shenzhen TargetRx, Inc., priority 2022, published 2025)

How the values were obtained:
[1] = target: T1, phosphorylated BTK Y223 in NIH/3T3 BTK C481S cells (Homo sapiens, UniProt Q06187, C481S); test: Phosphor-BTK(Y223) assay, NIH/3T3 BTK C481S cells; format: cell-based; conditions: phosphorylated BTK Y223, NIH/3T3 BTK C481S cells; read-out: NIH/3T3 BTK-C481S pBTK IC50
T1 construct: expressed in transfected cells; host or cells: NIH/3T3 (mouse fibroblasts) engineered to express BTK C481S
Procedure: The purpose of this assay is to simply, quickly and directly detect the endogenous level of BTK in cells. The specific assay steps are as follows: Day 1: NIH/3T3 BTK WT cells (7.5 k/well) and NIH/3T3 BTK C481S cells (10 k/well) were plated in 96-well plates, respectively, and cultured overnight at 37° C. and 5% CO2.
• 1. A 3-fold final concentration gradient dilution of the compound was prepared, and 50 μL was added to 100 μL of cell culture; 0.5% DMSO was used as a positive control for cell growth. • 2. The plate was incubated at 37° C., 5% CO2 for 0.5 h. • 3. Na3VO4 with a final concentration of 1 mM was added, and incubated at 37° C. and 5% CO2 for 2 hours. • 4. During the incubation, the following reagents were prepared: 1× added lysis buffer: 3 vol ddH2O+1 vol 4× lysis buffer+100× blocking reagent. p-BTK (Y223) cryptate-antibody and p-BTK (Y223) d2-antibody working solutions: 1 volume of each cryopreserved antibody (stored at −20° C.) was added to 19 times volumes of assay buffer (stored at 4° C.). • 5. After the incubation, the medium was removed and 50 μL of 1× added lysis buffer was added; The mixture was centrifuged at 500 rpm for 30 min at room temperature. • 6. The lysate was mixed well and 16 μL was transferred to a 384-well plate; 1× added lysis buffer was used as a blank control. • 7. 4 μL of pre-mixed working solutions of the two antibodies (cryptate Ab:d2 Ab=1:1) were added and the plate was sealed. • 8. The plate was incubated overnight at room temperature.
Biotek cytation3.0 microplate reader was used to read the plate at 665 nm and 620 nm, and the ratio of 665/620 nm per well was calculated.
IC50 was calculated using GraphPad Prism 7.0 software.
The following nonlinear fitting formula was used to obtain the phosphorylated BTK Y223 IC50 (half phosphorylation inhibitory concentration) of the compounds:
(§1) [formula] • X: Compound concentration log value • Y: Inhibition rate (% inhibition)
The formula for calculating cell phosphorylation inhibition rate (% inhibition rate) was: […]

EGFR = target: T2, EGFR (Homo sapiens, UniProt P00533); test: HTRF kinase activity inhibition assay, EGFR; format: biochemical; conditions: HTRF TK kit
T2 construct: purchased Carna 08-115
Text: (§2) In this assay, the HTRF TK Kit (Catalog No. 62TKOPEC) provided by Cisbio was used to detect the inhibitory activity of compounds on BTK kinase and BTK C481S kinase and the selectivity of compounds relative to EGFR, ITK and TEC kinases.
(§3) Reagents and consumables: BTK kinase (Invitrogen, Catalog No. PV3587), BTK C481S (Carna, Product No. 08-547), ITK (Carna, Product No. 08-181), EGFR (Carna, Product No. 08-115), TEC (Carna, Product No. 08-182), HTRF-TK kit (Cisbio, Product No. 62TKOPEC), MgCl2 (Sigma, Product No. M1028), MnCl2 (Sigma, Product No. M1787), DTT (Sigma, Product No. D0632), ATP (Sigma, Product No. A7699-1 g), DMSO (Sigma, Product No. D2650), 384-well plate (PE, Product No. 6008280).
(§4) The entire operation steps were carried out on ice, and the total reaction volume was 10 μL. The compound (4 μL), substrate and ATP (4 μL), kinase (2 μL) were added in sequence to a 384-well plate, and shaked for 30 seconds. After an appropriate time at room temperature, the detection reagent was added. After 1 hour at room temperature, the plate was detected with a microplate reader. The specific steps were as follows: • a) 1× kinase buffer solution required for kinase detection was calculated according to the amount of the detection compound, and prepared as needed; • b) compounds with 2.5×working concentration were prepared, the 100 times gradient concentration solution of compounds was diluted by 4 μL to the desired concentration, mixed well, and added to each well at 4 μL per well; • c) 5×working concentration of substrate and ATP were prepared, mixed in a ratio of 1:1 before adding to a 384-well plate, and added to each well at 4 μL per well; • d) 5×working concentration of kinase was prepared, and 2 μL was added to each well; • e) the plate was shaked on a microplate oscillator for 30 seconds, sealed with a sealing membrane, and reacted at room temperature for an appropriate time; • f) 4×working concentrations of streptavidin XL-665 and TK antibody-cryptate compound were prepared, mixed in a ratio of 1:1 before adding to a 384-well plate, and added to each well at 10 μL per well; • g) the plate was read after reacting at room temperature for 1 hour; • h) the wells with only substrate, ATP and 1% DMSO added but no kinase were blank control wells, and the wells with only substrate, ATP, 1% DMSO and kinase were positive control wells.
(§5) Readings: The values of 620 nm (cryptate) and 665 nm (XL665) were read with a BioTek Synerg Neo2 microplate reader, the ratio of 665/620 per well was calculated, and the data were exported. Data analysis: IC50 was calculated using GraphPad Prism 7.0 software. The following nonlinear fitting formula was used to obtain the IC50 (half inhibitory concentration) of compounds:
as §1
(§6) The kinase inhibition rate (% inhibition rate) was calculated as: […]

[2] = target: T3, phosphorylated BTK Y223 in NIH/3T3 BTK WT cells (Homo sapiens, UniProt Q06187); test: Phosphor-BTK(Y223) assay, NIH/3T3 BTK WT cells; format: cell-based; conditions: phosphorylated BTK Y223, NIH/3T3 BTK WT cells; read-out: NIH/3T3 BTK-WT pBTK IC50
T3 construct: expressed in transfected cells; host or cells: NIH/3T3 (mouse fibroblasts) engineered to express BTK WT
Procedure, shortened: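 NIH/3T3 cells expressing BTK WT (7.5k/well) or C481S (10k/well) were treated with compound for 0.5 h at 37 °C, then 1 mM Na3VO4 was added for 2 h. Lysates were probed overnight at room temperature with HTRF p-BTK(Y223) cryptate/d2 antibodies (665/620 nm ratio). IC50 came from nonlinear fit of % inhibition against log concentration.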

BTK C481S kinase = target: T4, BTK C481S kinase (Homo sapiens, UniProt Q06187, C481S); test: HTRF kinase activity inhibition assay, BTK C481S; format: biochemical; conditions: HTRF TK kit
T4 construct: purchased Carna 08-547
Text: as §2, §3, §4, §5, §1, §6

T3 sequence (Q06187 whole entry): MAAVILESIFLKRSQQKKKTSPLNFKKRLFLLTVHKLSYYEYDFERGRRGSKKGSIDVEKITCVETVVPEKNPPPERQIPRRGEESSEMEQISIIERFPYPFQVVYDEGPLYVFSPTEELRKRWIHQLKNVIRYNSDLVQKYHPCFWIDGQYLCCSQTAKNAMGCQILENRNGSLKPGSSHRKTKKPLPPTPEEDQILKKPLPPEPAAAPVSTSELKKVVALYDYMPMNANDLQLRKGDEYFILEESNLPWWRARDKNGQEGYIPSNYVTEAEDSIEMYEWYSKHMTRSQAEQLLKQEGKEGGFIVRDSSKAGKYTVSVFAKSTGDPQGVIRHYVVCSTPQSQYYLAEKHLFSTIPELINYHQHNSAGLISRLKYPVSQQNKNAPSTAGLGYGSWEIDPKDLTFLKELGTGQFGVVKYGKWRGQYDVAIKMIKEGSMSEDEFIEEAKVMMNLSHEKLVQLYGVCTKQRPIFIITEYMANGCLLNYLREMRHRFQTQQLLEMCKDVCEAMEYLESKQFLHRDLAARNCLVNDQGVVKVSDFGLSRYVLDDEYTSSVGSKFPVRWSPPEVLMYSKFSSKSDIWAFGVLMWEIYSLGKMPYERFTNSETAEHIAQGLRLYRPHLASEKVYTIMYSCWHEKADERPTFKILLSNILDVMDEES
T2 sequence (P00533 669-1210 limits assumed): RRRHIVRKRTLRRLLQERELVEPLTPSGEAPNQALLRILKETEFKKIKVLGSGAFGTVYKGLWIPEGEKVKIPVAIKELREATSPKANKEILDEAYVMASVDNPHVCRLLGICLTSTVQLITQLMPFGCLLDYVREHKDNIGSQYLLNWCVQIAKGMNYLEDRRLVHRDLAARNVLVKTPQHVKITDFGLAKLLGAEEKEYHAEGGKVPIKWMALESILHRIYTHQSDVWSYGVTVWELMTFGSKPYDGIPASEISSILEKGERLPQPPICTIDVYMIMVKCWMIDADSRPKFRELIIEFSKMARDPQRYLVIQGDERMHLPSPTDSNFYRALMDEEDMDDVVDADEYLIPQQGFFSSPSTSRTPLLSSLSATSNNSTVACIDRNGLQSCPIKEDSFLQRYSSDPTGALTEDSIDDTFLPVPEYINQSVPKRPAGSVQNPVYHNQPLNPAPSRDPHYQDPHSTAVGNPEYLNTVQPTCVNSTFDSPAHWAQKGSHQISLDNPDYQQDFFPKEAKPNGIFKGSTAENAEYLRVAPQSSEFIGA
T4 sequence (Q06187 whole entry C481S): as the sequence (Q06187 whole entry) above, with C481S counted along it
T1 sequence (Q06187 whole entry C481S): as the sequence (Q06187 whole entry) above, with C481S counted along it

| SMILES | IC50 [1] [nM] | IC50 (EGFR) [nM] | IC50 [2] [nM] | IC50 (BTK C481S kinase) [nM] |
| --- | --- | --- | --- | --- |
| COc1ccc(F)cc1C(=O)NCc1ccc(-c2nn(C3CCCC(O)C3)c3ncnc(N)c23)cc1 (single isomer, unassigned) [Example 6] | ≤ 25 | 50 to 100 | ≤ 25 | ≤ 10 |
| COc1ccc(F)cc1C(=O)NCc1ccc(-c2nc(C3CCCC(O)C3)n3ccnc(N)c23)cc1 (stereo not drawn) [Example 20, N-(4-(8-amino-3-(3-hydroxycyclohexanyl)imidazo[1,5-a]pyrazin-1-yl)benzyl)-5-fluoro-2-methoxybenzamide] | ≤ 25 | 10 to 50 | ≤ 25 | 10 to 50 |
| COc1ccc(F)cc1C(=O)NCc1ccc(-c2nn([C@H]3CC[C@@H](O)CC3)c3ncnc(N)c23)cc1 [Example 30, N-(4-(4-amino-1-((1S,4S)-4-hydroxycyclohexyl)-1H-pyrazolo[3,4-d]pyrimidin-3-yl)benzyl)-5-fluoro-2-methoxybenzamide] | ≤ 25 | 50 to 100 | ≤ 25 | ≤ 10 |
| COc1ccc(F)cc1C(=O)NCc1ccc(-c2nn(C3CCC(CO)OC3)c3ncnc(N)c23)cc1 (single isomer, unassigned) [Example 18, N-(4-(4-amino-1-(6-(hydroxymethyl)tetrahydro-2H-pyran-3-yl)-1H-pyrazolo[3,4-d]pyrimidin-3-yl)benzyl)-5-fluoro-2-methoxybenzamide] | ≤ 25 | 50 to 100 | ≤ 25 | ≤ 10 |
| COc1ccc(F)cc1C(=O)NCc1ccc(-c2nn(C3CCCC(O)C3)c3ncnc(N)c23)cc1 (single isomer, unassigned) [Example 7] | 25 to 50 | 100 to 1000 | ≤ 25 | ≤ 10 |
| COc1ccc(F)cc1C(=O)NCc1ccc(-c2nn(C3CCCC(O)C3)c3ncnc(N)c23)cc1 (stereo not drawn) [Example 4] | 25 to 50 | 100 to 1000 | ≤ 25 | ≤ 10 |
| COc1ccc(F)cc1C(=O)NCc1ccc(-c2cc(C3CCC(CO)OC3)n3ncnc(N)c23)cc1 (single isomer, unassigned) [Example 59, N-(4-(4-amino-7-(6-(hydroxymethyl)tetrahydro-2H-pyran-3-yl)pyrrolo[2,1-f][1,2,4]triazin-5-yl)benzyl)-5-fluoro-2-methoxybenzamide] | 50 to 100 | 10 to 50 | 25 to 50 | 10 to 50 |
| COc1ccc(F)cc1C(=O)NCc1ccc(-c2nn(C3CCC(O)CC3)c3ncnc(N)c23)cc1 [Example 29, N-(4-(4-amino-1-((1R,4R)-4-hydroxycyclohexyl)-1H-pyrazolo[3,4-d]pyrimidin-3-yl)benzyl)-5-fluoro-2-methoxybenzamide] | ≤ 25 | 50 to 100 | ≤ 25 | ≤ 10 |
| COc1ccc(F)cc1C(=O)NCc1ccc(-c2nn([C@H]3CC[C@@H](CO)CC3)c3ncnc(N)c23)cc1 [Example 55, cis-N-(4-(4-amino-1-((1S,4S)-4-(hydroxymethyl)cyclohexyl)-1H-pyrazolo[3,4-d]pyrimidin-3-yl)benzyl)-5-fluoro-2-methoxybenzamide] | ≤ 25 | 10 to 50 | ≤ 25 | ≤ 10 |
| COc1ccc(F)cc1C(=O)NCc1ccc(-c2nn([C@H]3CC[C@H](CO)CC3)c3ncnc(N)c23)cc1 [Example 56, trans-N-(4-(4-amino-1-((1R,4R)-4-(hydroxymethyl)cyclohexyl)-1H-pyrazolo[3,4-d]pyrimidin-3-yl)benzyl)-5-fluoro-2-methoxybenzamide] | ≤ 25 | 10 to 50 | ≤ 25 | ≤ 10 |
| COc1ccc(F)cc1C(=O)NCc1ccc(-c2nc(C3CCCC(O)C3)n3ccnc(N)c23)cc1 (single isomer, unassigned) [Example 22, N-(4-(8-amino-3-(3-hydroxycyclohexanyl)imidazo[1,5-a]pyrazin-1-yl)benzyl)-5-fluoro-2-methoxybenzamide] | ≤ 25 | 10 to 50 | ≤ 25 | ≤ 10 |
| COc1ccc(F)cc1C(=O)NCc1ccc(-c2nn(C3CCC(O)C3)c3ncnc(N)c23)cc1 (single isomer, unassigned) [Example 31, N-(4-(4-amino-1-(3-hydroxycyclopentanyl)-1H-pyrazolo[3,4-d]pyrimidin-3-yl)benzyl)-5-fluoro-2-methoxybenzamide] | ≤ 25 | 100 to 1000 | ≤ 25 | ≤ 10 |
| COc1ccc(F)cc1C(=O)NCc1ccc(-c2cc(C3CCC(CO)OC3)n3ncnc(N)c23)cc1 (single isomer, unassigned) [Example 60, N-(4-(4-amino-7-(6-(hydroxymethyl)tetrahydro-2H-pyran-3-yl)pyrrolo[2,1-f][1,2,4]triazin-5-yl)benzyl)-5-fluoro-2-methoxybenzamide] | ≤ 25 | ≤ 10 | ≤ 25 | ≤ 10 |
| COc1ccc(F)cc1C(=O)NCc1ccc(-c2nn(C3CCCC(O)C3)c3ncnc(N)c23)cc1 (single isomer, unassigned) [Example 8] | 50 to 100 | 100 to 1000 | ≤ 25 | 10 to 50 |
| COc1ccc(F)cc1C(=O)NCc1ccc(-c2nn(C3CCCC(O)C3)c3ncnc(N)c23)cc1 (single isomer, unassigned) [Example 5] | ≤ 25 | 50 to 100 | ≤ 25 | ≤ 10 |
